# pIC50: −log10 of the molar value.
# Experiments:
# [1] = test system: Protein kinase C, as a mixture of isozymes; experiment: PKC activity assay, 32P transfer from [γ-32P]ATP to histone III-S; type: biochemical, rat; conditions: for inhibition at 10 μM: 10 μM inhibitor; for pIC50: histone III-S substrate, 15 min, three trials per concentration
# Source text: In practicing various aspects of the present invention, compounds in accordance with the invention can be tested for a biological activity of interest using any assay protocol that is predictive of activity in vivo. For example, a variety of convenient assay protocols are available that are generally predictive of PKC inhibitory activity in vivo. In one approach, PKC inhibitory activity can be assessed using the PKC assay described in Example 9 (also described by Toullec et al. (1991) J. Biol. Chem. 266:15771). In that assay, the PKC was derived, as a mixture of isozymes, from rat brains, and activity was determined by incorporation of ^32P radiolabeled phosphate, derived from [γ-^32P]-ATP, onto a PKC substrate. Another assay for assessing PKC inhibitory activity is described in Example 10; see also U.S. Patent Application Publication No. 2002/0137789 A1 to Wender et al. In this assay, Ki values are determined for potential inhibitors based on competition with radiolabeled phorbol 12,13-dibutyrate for binding to a mixture of PKC isozymes.
# Materials used: Phosphatidyl serine and 1,2 sn-dioleylglycerol were obtained from Serdary Research Laboratories. Protein kinase C, as a mixture of isozymes, was obtained in isolated and purified form from Prof. Daria Mochley-Rosen and Tamar Lion (Stanford University, Department of Molecular Pharmacology).
# PKC activity was assayed by measuring ^32Pi transferred from [γ-^32P]ATP to histone III-S (Sigma). The reaction mixture (100 μL) included 20 mM Tris-HCl (pH 7.5) (30 μL), 10 mM CaCl2 in 20 mM Tris-HCl (10 μL), a sonicated suspension of 2.4 mg/mL phosphatidylserine and 80 μg/mL 1,2-diacylglycerol in 20 mM Tris-HCl (10 μL), a PKC preparation of 4.5 mg/mL total PKC with 5–9 U activity/mL relative to histone III-S (10 μL), a solution of 0.35 mg/mL histone III-S (Sigma) in 20 mM Tris-HCl (10 μL), and a solution of the inhibitor at various concentrations in 20 mM Tris-HCl containing <1% DMSO (10 μL). The reaction was started by the addition of a solution containing 27 μL of 3.75 mM ATP (non-radiolabeled), 100 μL 1.0 M MgCl2, and 1.3 μL of […] [γ-^32P]ATP, and 872 μL of 20 mM Tris-HCl (pH 7.5) (20 μL). After 15 min, the reaction was stopped by the addition of 30 μL of 200 mM EDTA and 200 mM ATP (non-radiolabeled). The reaction mixture was adsorbed onto phosphocellulose paper squares (Whatman P81), and allowed to dry for 5 min. The phosphocellulose paper squares were then washed with EtOH (3×1 min). The total protein phosphorylation was quantitated by scintillation counting. Counts per minute were averaged among three trials at each concentration.
# [2] = test system: five of the PKC isoforms; conditions: cited from earlier work
# [3] = test system: PKC; conditions: Tamaoki et al. (1986); cited from earlier work
Structure (SMILES),inhibition at 10 μM [1],pIC50 [1],melting point,pIC50 [2],pIC50 [3]
CN1C(=O)c2c3c(c4[nH]c5ccccc5c4c2C1=O)CCC(=O)CC3 [Compound 10],^A36% inhibition at 10 μM,< 5.00,309 to 310 °C (dec.),,
CN1C(=O)c2c3c(c4c(c2C1=O)c1ccccc1n4CCCNC(=O)OC(C)(C)C)CCC(O)CC3 (stereo not drawn) [Compound 14],^B40% inhibition at 10 μM,< 5.00,,,
CN[C@H]1CC2(C)OC(C)([C@H]1OC)n1c3ccccc3c3c4c(c5c6ccccc6n2c5c31)C(=O)NC4 (stereo partly drawn) [Staurosporin],,,,> 8.00,8.57

# Further lines, with some results ahead:
inhibition at 10 μM [1],pIC50 [1],melting point,Structure (SMILES),pIC50 [2],pIC50 [3]
,5.44,,O=C1CCc2c3c(c4c([nH]c5ccccc54)c2CC1)C(=O)NC3=O [Compound 11],,
,5.35,,O=C1NC(=O)c2c1c1c(c3[nH]c4ccccc4c23)CCC(O)CC1 (stereo not drawn) [Compound 12],,

# Reference: patent US7232842B2, “Kinase inhibitors and associated pharmaceutical compositions and methods of use” (Board of Trustees of the LeLand Stanford Junior University, priority 2003, dated 2007)
